Data reported in PubChem BioAssay AID330 (DTP/NCI, 2004).
Several values for one entry are separate records, joined by “and”; a condition that tells them apart may be missing. Equal entries are not always repeated. Inconclusive results and toxic doses are left out.

System: P388 leukemia ip, CD2F1 mice, survival T/C
Test: NCI In Vivo Anticancer Drug Screen. Data for tumor model P388 Leukemia (intraperitoneal) in CD2F1 (CDF1) mice
Settings: endpoint: median survival time, higher = longer survival
In short: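 Mice carrying the transplanted tumor received test compound or vehicle. Survival was recorded in each group, and the value is the treated-group measurement divided by that of the vehicle-treated control group.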

[1] = dose: 12.5 mg/kg/injection, schedule: Q01DX009 (ip), vehicle: saline with Tween-80
[2] = dose: 25.0 mg/kg/injection, schedule: Q01DX009 (ip), vehicle: saline with Tween-80
[3] = dose: 50.0 mg/kg/injection, schedule: Q01DX009 (ip), vehicle: saline with Tween-80
[4] = dose: 50.0 mg/kg/injection, schedule: Q01DX005 (ip), vehicle: Klucel (hydroxypropylcellulose) (HPC)
[5] = dose: 100.0 mg/kg/injection, schedule: Q01DX005 (ip), vehicle: Klucel (hydroxypropylcellulose) (HPC)
[6] = dose: 200.0 mg/kg/injection, schedule: Q01DX005 (ip), vehicle: Klucel (hydroxypropylcellulose) (HPC)
[7] = dose: 200.0 mg/kg/injection, schedule: Q01DX009 (ip), vehicle: saline with Tween-80
[8] = dose: 100.0 mg/kg/injection, schedule: Q01DX009 (ip), vehicle: saline with Tween-80
[9] = dose: 100.0 mg/kg/injection, schedule: Q04DX003 (ip), vehicle: saline with Tween-80
[10] = dose: 50.0 mg/kg/injection, schedule: Q01DX005 (ip), vehicle: saline with Tween-80
[11] = dose: 100.0 mg/kg/injection, schedule: Q01DX005 (ip), vehicle: saline with Tween-80
[12] = dose: 200.0 mg/kg/injection, schedule: Q01DX005 (ip), vehicle: saline with Tween-80
[13] = dose: 12.5 mg/kg/injection, schedule: Q01DX009 (ip), vehicle: saline
[14] = dose: 25.0 mg/kg/injection, schedule: Q01DX009 (ip), vehicle: saline
[15] = dose: 6.25 mg/kg/injection, schedule: Q01DX009 (ip), vehicle: saline with Tween-80
[16] = dose: 6.25 mg/kg/injection, schedule: Q01DX009 (ip), vehicle: saline
[17] = dose: 60.0 mg/kg/injection, schedule: Q01DX005 (ip), vehicle: saline with Tween-80
[18] = dose: 120.0 mg/kg/injection, schedule: Q01DX005 (ip), vehicle: saline with Tween-80
[19] = dose: 240.0 mg/kg/injection, schedule: Q01DX005 (ip), vehicle: saline with Tween-80

## c1nc(SSc2ncnc3nc[nH]c23)c2[nH]cnc2n1
[1]
  T/C: 113 % of control
[2]
  T/C: 118 % of control
[3]
  T/C: 100 % of control

## Cc1cccc(C)c1OCc1nnc(SCC(=O)O)n1-c1c(C)cccc1C
[4]
  T/C: 102 % of control
[5]
  T/C: 99 % of control
[6]
  T/C: 93 % of control

## O=C(/C=C/c1ccc(Cl)c(Cl)c1)c1ccccc1
[7]
  T/C: 100 % of control

## CC(C)C(=O)N[C@H]1C[C@H]2CCC1(C)C2(C)C
[4]
  T/C: 103 % of control and 93 % of control
[5]
  T/C: 107 % of control and 96 % of control
[6]
  T/C: 111 % of control and 95 % of control

## Cc1ccc(S(=O)(=O)N=S(C)C)cc1
dose: 6.25 mg/kg/injection, schedule: Q01DX009 (ip), vehicle: other
  T/C: 117 % of control
dose: 12.5 mg/kg/injection, schedule: Q01DX009 (ip), vehicle: other
  T/C: 107 % of control
dose: 25.0 mg/kg/injection, schedule: Q01DX009 (ip), vehicle: other
  T/C: 113 % of control
dose: 50.0 mg/kg/injection, schedule: Q01DX009 (ip), vehicle: other
  T/C: 118 % of control
[3]
  T/C: 100 % of control
[8]
  T/C: 106 % of control
[7]
  T/C: 111 % of control
dose: 400.0 mg/kg/injection, schedule: Q01DX009 (ip), vehicle: saline with Tween-80
  T/C: 116 % of control

## O=C(NC1CCOC1=O)c1ccc(N=C=S)cc1 (stereo not drawn)
dose: 25.0 mg/kg/injection, schedule: Q04DX003 (ip), vehicle: Klucel (hydroxypropylcellulose) (HPC)
  T/C: 104 % of control
dose: 50.0 mg/kg/injection, schedule: Q04DX003 (ip), vehicle: Klucel (hydroxypropylcellulose) (HPC)
  T/C: 107 % of control
dose: 100.0 mg/kg/injection, schedule: Q04DX003 (ip), vehicle: Klucel (hydroxypropylcellulose) (HPC)
  T/C: 101 % of control and 106 % of control

## C=C1CC2CCC1C2 (stereo not drawn)
[2]
  T/C: 100 % of control
dose: 25.0 mg/kg/injection, schedule: Q04DX003 (ip), vehicle: saline with Tween-80
  T/C: 104 % of control
[3]
  T/C: 100 % of control
dose: 50.0 mg/kg/injection, schedule: Q04DX003 (ip), vehicle: saline with Tween-80
  T/C: 104 % of control
[8]
  T/C: 100 % of control
[9]
  T/C: 100 % of control

## CC(=O)/C=C/c1ccc(Cl)c(Cl)c1
[3]
  T/C: 118 % of control
[8]
  T/C: 111 % of control
[7]
  T/C: 111 % of control

## Cn1nnnc1NN(c1nnnn1C)C1C=CCC=C1
[9]
  T/C: 99 % of control
dose: 200.0 mg/kg/injection, schedule: Q04DX003 (ip), vehicle: saline with Tween-80
  T/C: 97 % of control
dose: 400.0 mg/kg/injection, schedule: Q04DX003 (ip), vehicle: saline with Tween-80
  T/C: 98 % of control

## CCN1c2ccccc2S(=O)(=O)n2c(COc3ccccc3)nnc21
dose: 25.0 mg/kg/injection, schedule: Q01DX001 (ip), vehicle: saline with Tween-80
  T/C: 95 % of control
dose: 50.0 mg/kg/injection, schedule: Q01DX001 (ip), vehicle: saline with Tween-80
  T/C: 95 % of control
dose: 100.0 mg/kg/injection, schedule: Q01DX001 (ip), vehicle: saline with Tween-80
  T/C: 87 % of control

## CCOC(=O)CC(C#N)(C#N)CC(=O)OCC
[10]
  T/C: 101 % of control
[11]
  T/C: 107 % of control
[12]
  T/C: 106 % of control

## COc1nc(Cl)nc(OC)n1
[7]
  T/C: 86 % of control

## O=c1cccccc1O
[13]
  T/C: 105 % of control and 107 % of control
[14]
  T/C: 100 % of control

## Cc1[nH]nc2c1NC(=O)OC(C)C2 (stereo not drawn)
[10]
  T/C: 101 % of control
[11]
  T/C: 101 % of control
[12]
  T/C: 106 % of control

## Cc1cc(=O)oc2c1cc(OCC(=O)OCCN1CCCCC1)c1occ(C)c12
[10]
  T/C: 99 % of control
[11]
  T/C: 92 % of control
[12]
  T/C: 93 % of control

## CC(=O)c1c(-c2ccc(F)cc2)c(-c2ccc(F)cc2)n[nH]c1=O
[10]
  T/C: 100 % of control
[11]
  T/C: 100 % of control
[12]
  T/C: 97 % of control

## CCOc1c(Cl)cc(Cl)cc1C(c1ccccc1S(=O)(=O)O)c1cc(Cl)cc(Cl)c1OCC
[15]
  T/C: 100 % of control
[1]
  T/C: 91 % of control

## O=S(=O)(O)SNCCN1CCOCC1
[16]
  T/C: 105 % of control
[13]
  T/C: 110 % of control
[14]
  T/C: 110 % of control

## Cc1ccc(-n2c(N)cc(=O)[nH]c2=S)nc1
dose: 56.25 mg/kg/injection, schedule: Q01DX001 (ip), vehicle: saline with Tween-80
  T/C: 104 % of control
dose: 112.5 mg/kg/injection, schedule: Q01DX001 (ip), vehicle: saline with Tween-80
  T/C: 100 % of control
dose: 225.0 mg/kg/injection, schedule: Q01DX001 (ip), vehicle: saline with Tween-80
  T/C: 90 % of control

## CCOC(=O)C[N+]1(C)C2CCC1CC(OC(=O)C(CO)c1ccccc1)C2 (stereo not drawn)
[13]
  T/C: 100 % of control
[14]
  T/C: 100 % of control

## COc1ccc2c(c1)CCc1c-2nc(N)nc1-c1nc(N)nc2c1CCc1cc(OC)ccc1-2
[17]
  T/C: 100 % of control
[18]
  T/C: 100 % of control
[19]
  T/C: 100 % of control

## CC(C)CNc1ccc(S(=O)(=O)c2ccc(NCC(C)C)c([N+](=O)[O-])c2)cc1[N+](=O)[O-]
[15]
  T/C: 98 % of control
[1]
  T/C: 92 % of control
[2]
  T/C: 87 % of control
[3]
  T/C: 93 % of control

## Cn1c(Br)c(Br)c(=O)n(C)c1=O
[4]
  T/C: 99 % of control
[5]
  T/C: 100 % of control
[6]
  T/C: 100 % of control

## CSCC[C@@H]1C(=O)N(C)[C@H](C(C)(C)C)N1C(=O)c1ccccc1
[17]
  T/C: 100 % of control
[18]
  T/C: 100 % of control
[19]
  T/C: 97 % of control

## O=C/C(=C\O)NC(=O)c1ccccc1C(=O)O
dose: 60.0 mg/kg/injection, schedule: Q01DX005 (ip), vehicle: Klucel (hydroxypropylcellulose) (HPC)
  T/C: 99 % of control
dose: 120.0 mg/kg/injection, schedule: Q01DX005 (ip), vehicle: Klucel (hydroxypropylcellulose) (HPC)
  T/C: 99 % of control
dose: 240.0 mg/kg/injection, schedule: Q01DX005 (ip), vehicle: Klucel (hydroxypropylcellulose) (HPC)
  T/C: 92 % of control

## CCOc1cc2c(cc1C/C=C/c1cc(OC)c(OC)c(OC)c1)OCO2
dose: 15.0 mg/kg/injection, schedule: Q01DX005 (ip), vehicle: saline with Tween-80
  T/C: 94 % of control
dose: 30.0 mg/kg/injection, schedule: Q01DX005 (ip), vehicle: saline with Tween-80
  T/C: 95 % of control
[17]
  T/C: 95 % of control

## CCCCCCCCCCCCCCCCCCCCCC(=O)Nc1ccn(C2OC(CO)C(O)C2O)c(=O)n1 (stereo not drawn)
dose: 1.56 mg/kg/injection, schedule: Q01DX009 (ip), vehicle: saline with Tween-80
  T/C: 155 % of control
dose: 3.12 mg/kg/injection, schedule: Q01DX009 (ip), vehicle: saline with Tween-80
  T/C: 198 % of control and 209 % of control
[15]
  T/C: 106 % of control and 206 % of control and 235 % of control
[1]
  T/C: 256 % of control and 309 % of control
[8]
  T/C: 195 % of control

## c1ccc([Te][Te]c2ccccc2)cc1
[10]
  T/C: 163 % of control
[12]
  T/C: 105 % of control

## CC1CN(C(=O)c2ccccc2)CC/C1=N\O (stereo not drawn)
[10]
  T/C: 97 % of control
[11]
  T/C: 93 % of control
[12]
  T/C: 101 % of control

## CCCCN(CCCC)P(=O)(N1CC1)N1CC1
[16]
  T/C: 118 % of control
dose: 16.5 mg/kg/injection, schedule: Q01DX009 (ip), vehicle: saline
  T/C: 175 % of control
dose: 100.0 mg/kg/injection, schedule: Q04DX003 (ip), vehicle: saline
  T/C: 90 % of control
